# Test results as given in patent EP0564397A1, “Antiatherosclerotic substituted phenylquinazoline derivatives” (SANDOZ LTD., priority 1992, dated 1993).
# Legend:
# Conditions in all cases: duration of treatment 8 days
# [1] = test system: total triglycerides; assay: Test A: In vivo HDL-cholesterol test, blood serum samples assayed for total triglycerides content
# Text: (§1) a) Test A: In vivo HDL-cholesterol test: The test is effected according to the method described in the literature, e.g. in EP 528 146 Other conventional methods may be used to assay the blood serum samples for HDL-cholesterol and total triglycerides content.
# [2] = test system: Apo A-I; assay: Test B: Apo A-I test; type: in vivo
# Text: b) Test B: Apo A-I test: The test is effected as described in the literature, e.g. in EP 528 146.
# [3] = test system: HDL-cholesterol; assay: Test A: In vivo HDL-cholesterol test
# Text: as §1
Structure (SMILES),Total triglyceride level decrease (%) ([1]; average dose 83 mg/kg/day),Apo-I level increase (%) ([2]; average dose 83 mg/kg/day),HDL-cholesterol level increase (%) ([3]; average dose 83 mg/kg/day),Total triglyceride level decrease (%) ([1]; average dose 53 mg/kg/day),Apo-I level increase (%) ([2]; average dose 53 mg/kg/day),HDL-cholesterol level increase (%) ([3]; average dose 53 mg/kg/day)
"CC1=CSC2=Nc3ccccc3[C@@H](c3ccccc3)N12 [Example 1, R-isomer (free base), (R)-3-Methyl-5-phenyl-5H-thiazolo[2,3-b]quinazoline]",15,62,402,,,
Cc1ccc(C)c(OCCCC(C)(C)C(=O)O)c1 [Gemfibrozil],,,,15,88,211
